ChEMBL document CHEMBL1139104, “Synthesis and evaluation of 4-O-alkylated 2-deoxy-2,3-didehydro-N-acetylneuraminic acid derivatives as inhibitors of human parainfluenza virus type-3 sialidase activity” (Bioorg Med Chem Lett, 2007)

Experiment: Inhibition of sialidase in Human parainfluenza virus 3 C243
Design: species or system Human respirovirus 3

| SMILES | IC50 |
| --- | --- |
| CC(=O)N[C@H]1[C@H]([C@H](O)[C@H](O)CO)OC(C(=O)O)=C[C@@H]1OCc1ccccc1-c1ccccc1 | 30 µM |
| CC(=O)N[C@H]1[C@H]([C@H](O)[C@H](O)CO)OC(C(=O)O)=C[C@@H]1NC(=N)N [ZANAMIVIR] | 25 µM |
| CC(=O)N[C@H]1[C@H]([C@H](O)[C@H](O)CO)OC(C(=O)O)=C[C@@H]1O [NEU5AC2EN] | 24 µM |
| CC(=O)N[C@H]1[C@H]([C@H](O)[C@H](O)CO)OC(C(=O)O)=C[C@@H]1OCc1ccccc1 | 10 µM |

Next, values leading:

| IC50 | SMILES |
| --- | --- |
| 10 µM | CCCCCCCCCCO[C@H]1C=C(C(=O)O)O[C@@H]([C@H](O)[C@H](O)CO)[C@@H]1NC(C)=O |
| 3 µM | CCO[C@H]1C=C(C(=O)O)O[C@@H]([C@H](O)[C@H](O)CO)[C@@H]1NC(C)=O |
| 5 µM | CCCCCCO[C@H]1C=C(C(=O)O)O[C@@H]([C@H](O)[C@H](O)CO)[C@@H]1NC(C)=O |
